The values that follow come from PubChem BioAssay (NCI).

Where “and” joins values, the source holds several entries; their conditions need not be identical. Equal values may be shown once.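 Dose response: 5 concentrations. Exposure: 48 h. Format: 96-well plates. Endpoint: linear interpolation; highest concentration if not reached. Here, GI50 denotes the concentration required for 50% inhibition of growth. TGI is the concentration that stops growth completely.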

Among the test systems are A498 renal; HCC-2998 colon; UO-31 renal; SNB-19 CNS; SW-620 colon; HOP-62 NSCLC; NCI-H522 lung; HCT-15 colon.
What all share (assay): NCI-60 cell line screen, 48 h

In the case of `COc1cccc(-c2nc3sccn3c2-c2ccnc(NCCCNS(=O)(=O)c3ccccc3)c2)c1`, the GI50 with A498 renal is 2.92 µM; in the experiment on HCC-2998 colon, 4.38 µM; in the experiment on UO-31 renal, 2.07 µM; with SNB-19 CNS, 4.92 µM; with SW-620 colon it was 3.81 µM; in the experiment with HOP-62 NSCLC, 3.43 µM. Also, the GI50 in the experiment on NCI-H522 lung was 2.34 µM; in the experiment on HCT-15 colon, 3.02 µM. Also, the TGI in the experiment with A498 renal, in the experiment with HCC-2998 colon, in the experiment on UO-31 renal, in the experiment on SNB-19 CNS, in the experiment with SW-620 colon and in the experiment on HOP-62 NSCLC was more than 100 µM each time. Besides, the TGI with NCI-H522 lung was 15 µM; in the experiment with HCT-15 colon, more than 100 µM.
`C=CC(=O)Nc1cc2c(Nc3ccc(F)c(Cl)c3)ncnc2cc1C#CC(C)(C)N1CCN(C)CC1`: the GI50 is 1.21 µM with A498 renal; 1.83 µM with HCC-2998 colon; 0.244 µM in the experiment on UO-31 renal; 3.58 µM in the experiment with SNB-19 CNS; 2 µM in the experiment on SW-620 colon; 3.53 µM with HOP-62 NSCLC. Also, the GI50 with NCI-H522 lung is 0.456 µM; in the experiment on HCT-15 colon it was 1.68 µM. In addition, the TGI in the experiment with A498 renal came to 3.94 µM; in the experiment with HCC-2998 colon, 4.25 µM; with UO-31 renal, 4.4 µM; in the experiment on SNB-19 CNS, 5.05 µM; with SW-620 colon it was 4.61 µM; with HOP-62 NSCLC it was 5.9 µM. The figures for the TGI in the experiment on NCI-H522 lung and in the experiment with HCT-15 colon were 2.28 µM and 5.11 µM, respectively.
Turning to `N#[N+]c1ccc(Nc2ccccc2)cc1`, the GI50 with A498 renal, with HCC-2998 colon, in the experiment on UO-31 renal, with SNB-19 CNS, in the experiment with SW-620 colon and in the experiment with HOP-62 NSCLC was more than 50 µg/mL each time. The GI50 in the experiment with NCI-H522 lung and in the experiment on HCT-15 colon was more than 50 µg/mL in each case. The TGI in the experiment with A498 renal, in the experiment on HCC-2998 colon, in the experiment with UO-31 renal, with SNB-19 CNS, in the experiment with SW-620 colon and in the experiment with HOP-62 NSCLC was more than 50 µg/mL each time. Moreover, the TGI in the experiment with NCI-H522 lung and in the experiment on HCT-15 colon was more than 50 µg/mL each time.
Take `COc1cc(-c2nn(-c3cccc(NC(=O)CCN4CCN(c5ccccc5)CC4)c3)cc2-c2ccncc2)ccc1Cl`: the GI50 in the experiment on A498 renal is 3.29 µM; in the experiment with HCC-2998 colon it was 3.56 µM; in the experiment on UO-31 renal, 2.9 µM; with SNB-19 CNS, 4.38 µM; in the experiment on SW-620 colon, 4.09 µM; in the experiment with HOP-62 NSCLC it was 4.32 µM. In addition, the results for the GI50 in the experiment with NCI-H522 lung and with HCT-15 colon were 2.43 µM and 2.62 µM, respectively. In addition, the TGI was 17.9 µM with A498 renal; more than 100 µM in the experiment on HCC-2998 colon; 48 µM in the experiment with UO-31 renal; more than 100 µM in the experiment on SNB-19 CNS; more than 100 µM in the experiment on SW-620 colon; more than 100 µM in the experiment with HOP-62 NSCLC. Besides, the values for the TGI with NCI-H522 lung and in the experiment with HCT-15 colon were 9.69 µM and more than 100 µM, respectively.
On to `COc1cc(NC2CCCCC2O)c2nc(-c3ccc(Cl)cc3)ccc2c1` (centres undefined), for which the GI50 was 6.66 µM in the experiment with A498 renal; 13.4 µM in the experiment with HCC-2998 colon; 6.31 µM in the experiment on UO-31 renal; 21.7 µM in the experiment on SNB-19 CNS; 7.52 µM with SW-620 colon; 5.96 µM with HOP-62 NSCLC. Further, the GI50 in the experiment with NCI-H522 lung was 4.83 µM; in the experiment with HCT-15 colon, 2.94 µM. Besides, the TGI was 34.8 µM in the experiment with A498 renal; more than 100 µM in the experiment with HCC-2998 colon; 88.5 µM with UO-31 renal; more than 100 µM in the experiment on SNB-19 CNS; 46.7 µM in the experiment with SW-620 colon; 46.7 µM in the experiment on HOP-62 NSCLC. The TGI was more than 100 µM with NCI-H522 lung and 22.4 µM in the experiment on HCT-15 colon.
For the compound `COc1cc2c3cc1Oc1c(OC)c(OC)cc4c1C(Cc1ccc(O)c(c1)Oc1ccc(cc1)CC3N(C)CC2)N(C)CC4` (centres undefined), the TGI in the experiment on A498 renal is 48.4 µM; in the experiment on HCC-2998 colon, 37.3 µM and 32.1 µM; in the experiment on UO-31 renal, 35.7 µM and 31.9 µM; with SNB-19 CNS, 65.8 µM and > 100 µM; in the experiment with SW-620 colon, > 100 µM and 33.4 µM; in the experiment on HOP-62 NSCLC, > 100 µM and 64.8 µM. Further, the TGI was > 100 µM and 30.4 µM in the experiment on NCI-H522 lung; 37.6 µM and > 100 µM with HCT-15 colon. Also, the GI50 in the experiment with HCC-2998 colon was 10.9 µM; in the experiment on UO-31 renal, 13.9 µM; in the experiment with SNB-19 CNS, 31.5 µM; in the experiment on HOP-62 NSCLC it was 24.3 µM; in the experiment with NCI-H522 lung it was 13.4 µM; in the experiment with HCT-15 colon, 4.82 µM.
For the compound `C[As](C)SC1OCC(O)C(O)C1O` (centres undefined), the GI50 with A498 renal is 0.316 µM; in the experiment with HCC-2998 colon it was 0.224 µM; with UO-31 renal, 0.109 µM; in the experiment on SNB-19 CNS it was 4.22 µM; in the experiment on SW-620 colon, 0.217 µM; in the experiment on HOP-62 NSCLC, 2.15 µM. For the same compound, the figures for the GI50 in the experiment with NCI-H522 lung and in the experiment on HCT-15 colon were 0.0712 µM and 0.107 µM, respectively. The TGI with A498 renal was determined as 1.22 µM; in the experiment on HCC-2998 colon, 0.466 µM; in the experiment with UO-31 renal, 0.53 µM; with SNB-19 CNS, 27.4 µM; with SW-620 colon, 1.59 µM; in the experiment on HOP-62 NSCLC, 9.52 µM. The TGI is 0.211 µM in the experiment with NCI-H522 lung and 0.611 µM in the experiment on HCT-15 colon.
`CC1OC(OC2C(O)C(O)C(O)C(O)C2O)C(N)CC1N=C(N)C(=O)O` (centres undefined): the TGI in the experiment with A498 renal, in the experiment on HCC-2998 colon, in the experiment with UO-31 renal, in the experiment on SNB-19 CNS, in the experiment on SW-620 colon and in the experiment with HOP-62 NSCLC was more than 100 µM throughout. The TGI in the experiment on NCI-H522 lung and in the experiment on HCT-15 colon was more than 100 µM in each case.
As to `O=CN1N=C(c2cccc(Nc3ccnc4cc(Cl)ccc34)c2)CC1c1ccc(Cl)cc1` (centres undefined), the GI50 is 0.832 µM in the experiment on A498 renal; 3.36 µM with HCC-2998 colon; 0.878 µM in the experiment with UO-31 renal; 3.48 µM in the experiment on SNB-19 CNS; 0.557 µM in the experiment on SW-620 colon; 1.91 µM in the experiment with HOP-62 NSCLC. Also, the GI50 in the experiment with NCI-H522 lung was 0.798 µM; with HCT-15 colon it was 0.903 µM. Besides, the TGI with A498 renal is 6.18 µM; with HCC-2998 colon it was more than 100 µM; in the experiment with UO-31 renal, more than 100 µM; in the experiment with SNB-19 CNS, more than 100 µM; in the experiment with SW-620 colon, more than 100 µM; in the experiment on HOP-62 NSCLC it was more than 100 µM. In addition, the results for the TGI in the experiment on NCI-H522 lung and in the experiment on HCT-15 colon were 70.1 µM and more than 100 µM, respectively.
